Measurements published in US20080176963A1, “TREATMENT OF BRAIN DISORDERS OF THE STRIATUM” (priority 2007, published 2008).
Where two headings read alike, the source gives them in different places.

Assays:
[1] = tested on: indirect-pathway MSN synapses; assay type: cell-based, mouse
6-OHDA-treated mice [2] = assay type: in vivo, mouse
Experimental: (§1) Dopamine depletion and behaviour. Reserpine was administered i.p. at a concentration of 1 or 5 mgkg^−1, and electrophysiological and behavioural experiments were performed 18-24 h after injections. 6-Hydroxydopamine was injected bilaterally into the median forebrain bundle at a concentration of 5 μg μl^−1 to a total volume of 2 μL per side, and experiments were performed 48-60 h after injections. Catalepsy was measured with the bar test. Descent latency represents the time in seconds required for the mouse either to remove both paws from a bar (diameter 2 mm) placed 4 cm above the ground, or for one paw to touch the ground. Horizontal locomotor activity was measured in 15-min blocks with the ENV-510 test chamber and Activity Monitor software. Animals were tested 45-60 min after drug administration. All procedures involving animals were approved by the Institutional Animal Care and Use Committee.
(§2) 6-hydroxydopamine treatment Bilateral lesions of the substantia nigra pars compacta were achieved by injecting 6-OHDA Bromide (Sigma-Aldrich) into the right and left medial forebrain bundles. Mice were anesthetized with i.p. injections of ketamine (100 mg/kg)/xylazine (10 mg/kg) and placed into a stereotactic frame. 6-OHDA was prepared immediately before injections at a concentration of 5 μg/μL in 0.02% ascorbic acid. Injections were performed using 33 gauge cannulae (Plastics One) attached to a syringe pump (Harvard Apparatus) running at 0.5 μL/min, to a total volume of 2 μL/side at the following coordinates: AP: −1.5 mm; ML±1 mm; DV: 4.8 mm. Brain slices were obtained from 6-OHDA treated animals at 48-60 hour after injections.
(§3) Behavior. 3- to 4-week-old C57/BL6 wild-type mice were injected with reserpine (1 mg/kg i.p.) or 6-OHDA as described above. […] Animals were tested 18-24 hours after reserpine injections and 48-60 hours after 6-OHDA injections. […]
(§4) To test catalepsy, a horizontal bar (2 mm diameter) was placed 4 cm above the ground. […] Descent latency was measured as the delay to when either both paws were removed from the bar or one paw touched the ground. […]

6-OHDA-treated mice [3] = settings: mouse, in vivo
Experimental: as §1, §2, §3, §4

tyrosine hydroxylase = test: Tyrosine hydroxylase staining of striatum after 6-OHDA; assay type: in vivo, mouse; settings: 48 hours after bilateral 6-OHDA injection (5 μg/μL, 2 μL/side)
Experimental: as §2
Tyrosine hydroxylase staining. The degree of dopamine denervation was assessed at 48 hours post-injection in a subset of 6-OHDA-treated mice by tyrosine hydroxylase (TH) staining. Mouse forebrains were fixed at 4° C. for 1 hour in 4% paraformaldehyde (in PBS), and then kept in PBS overnight at 4° C. Brains were transferred to 30% sucrose (in PBS) for 2 hours, blocked in O.C.T. and frozen. […] coronal slices containing the striatum were collected on slides using a cryostat. […] Images were acquired on a Zeiss Axioskop 2 coupled to a Hamamatsu CCD and analyzed using Metamorph software.

[4] = tested on: indirect-pathway MSN synapses; test: LTD induced by tetanic stimulation in striatal slices from reserpine-treated mice; assay type: cell-based, mouse
direct pathway neurons = test: LTD induction at direct pathway synapses in striatal slices; assay type: cell-based, mouse; settings: URB754 5 μM
[5] = tested on: indirect-pathway synapses; test: DHPG-elicited depression of EPSCs (eCB-LTD), indirect pathway; assay type: cell-based, mouse
medium spiny neurons = test: Effect of drug wash-in alone on EPSC amplitudes in striatal MSNs; assay type: cell-based, mouse; settings: URB597 1 μM; URB754 5 μM
reserpine-treated mice [6] = test: Catalepsy bar test in reserpine-treated mice; assay type: in vivo, mouse
Experimental: as §1
(§5) Reserpine treatment. To study the effects of dopamine depletion, reserpine (Sigma-Aldrich) was dissolved in 1% glacial acetic acid at a concentration of 2.5 mg/mL. This solution was diluted with dH20 by a factor of 10, to yield a final concentration of 0.1% glacial acetic acid and 250 μg/mL reserpine This reserpine solution was injected i.p. at a concentration of 1 mg/kg or 5 mg/kg as stated in the text.
(§6) Behavior. 3- to 4-week-old C57/BL6 wild-type mice were injected with reserpine (1 mg/kg i.p.) or 6-OHDA as described above. […] Animals were tested 18-24 hours after reserpine injections and 48-60 hours after 6-OHDA injections. […] All drugs were injected i.p. in 0.9% NaCl at a volume of 20 μL/gm. The injection solution for URB597 was prepared by diluting a stock solution prepared in DMSO into saline, with a final concentration of 0.5% DMSO. Animals were then tested again at 45-60 minutes following drug injections. […]
as §4

reserpine-treated mice [7] = test: Open-field locomotor activity in reserpine-treated mice; assay type: in vivo, mouse
Experimental: as §1, §5, §6, §4

striatal dopamine = settings: 18-24 hours after reserpine injection; cited from earlier work
direct-pathway synapses [8] = test: DHPG-elicited depression of EPSCs (eCB-LTD), direct pathway; assay type: cell-based, mouse; settings: DHPG 100 μM for 10 min, MSNs held at +50 mV (so in the source)
[9] = tested on: indirect-pathway MSN synapses; test: LTD induced by high-frequency afferent stimulation, whole-cell recording in striatal slices of control mice; assay type: cell-based, mouse; settings: indirect-pathway MSNs; AM251 1 μM; sulpiride 10 μM; methysergide 4 μM, GR125487 1 μM, LY278584 1 μM, prazosin 2 μM, propranolol 1 μM; without drug 51±5%
[10] = tested on: indirect-pathway synapses; test: Presynaptic inhibition of EPSCs by CB1 receptor agonist, indirect pathway; assay type: cell-based, mouse; settings: WIN55,212 1 μM
direct-pathway synapses [11] = test: Presynaptic inhibition of EPSCs by CB1 receptor agonist, direct pathway; assay type: cell-based, mouse; settings: WIN55,212 1 μM; control mice
MSNs = test: Block of carbachol-induced inward membrane current in MSNs; assay type: cell-based, mouse; settings: pirenzepine; data not shown
Excerpt: FIG. 5. […] The arrow marks the time of LTD induction. […] Error bars are ±SEM.

NCCc1cc(O)c(O)cc1O [6-OHDA, 6-hydroxydopamine]
EPSC after LTD induction, % of baseline at 30-40 min [1]: 111±13 % of baseline | Descent latency, catalepsy bar test (6-OHDA-treated mice [2]; mouse, in vivo): 45 ± 4 s | Distance traveled in 15 min, open field (6-OHDA-treated mice [3]): 236±52 cm | Immunoreactivity for tyrosine hydroxylase in the striatum (tyrosine hydroxylase): 34±4 % of control

Cc1ccc(Nc2nc3ccc(C)cc3c(=O)o2)cc1 [URB754]
EPSC after LTD induction, % of baseline at 30-40 min [4]: 68±13 % of baseline | EPSC after LTD induction, % of baseline at 30-40 min [1]: 69±9 % of baseline | LTD at direct pathway neurons in the presence of drug (direct pathway neurons): nor did it unmask LTD | EPSC, % of baseline at 20-30 min after brief DHPG application [5]: 84±6 % of baseline | Effect of drug alone on EPSC amplitudes / synaptic transmission (medium spiny neurons): no effect | Descent latency, catalepsy bar test (reserpine-treated mice [6]; reserpine-treated mice, URB754 1.5 mg/kg i.p., quinpirole 1.5 mg/kg i.p., alone or coadministered): no significant decrease in catalepsy | Descent latency, catalepsy bar test (6-OHDA-treated mice [2]; 6-OHDA-treated mice, URB754 1.5 mg/kg i.p., quinpirole 1.5 mg/kg i.p., alone or coadministered): no significant decrease in catalepsy | Distance traveled in 15 min, open field (reserpine-treated mice [7]; mouse, in vivo): no significant decrease in catalepsy or increase in locomotor activity | Distance traveled in 15 min, open field (6-OHDA-treated mice [3]): no significant decrease in catalepsy or increase in locomotor activity

COC(=O)[C@H]1[C@H]2C[C@@H]3c4[nH]c5cc(OC)ccc5c4CCN3C[C@H]2C[C@@H](OC(=O)c2cc(OC)c(OC)c(OC)c2)[C@@H]1OC [reserpine]
EPSC after LTD induction, % of baseline at 30-40 min ([4]; mice given reserpine 5 mg/kg i.p. 18-24 h earlier, in bath quinpirole 10 μM, URB597 1 μM or URB754 5 μM, reserpine line = no drug in bath): 122±8 % of baseline | Descent latency, catalepsy bar test (reserpine-treated mice [6]; reserpine 1 mg/kg i.p. 18-24 h before, URB597 1 mg/kg i.p., quinpirole 1.5 mg/kg i.p., alone or together, 60 s maximum, reserpine line = before drug): more than 60 s | Distance traveled in 15 min, open field (reserpine-treated mice [7]; reserpine 1 mg/kg i.p. 18-24 h before, URB597 1 mg/kg i.p., quinpirole 1.5 mg/kg i.p., 45-60 min after injection, reserpine line = before drug): 48±11 cm | Striatal dopamine (striatal dopamine): < 1 % of normal levels

N[C@H](C(=O)O)c1cc(O)cc(O)c1 [DHPG, (S)-3,5-dihydroxyphenylglycine]
EPSC, % of baseline at 20-30 min after brief DHPG application ([5]; DHPG 100 μM for 1 min, alone or in the presence of quinpirole 10 μM or URB754): 98±5 % of baseline | EPSC, % of baseline at 30-40 min ([5]; DHPG 100 μM for 10 min, MSNs held at +50 mV (so in the source)): 64±5 % of baseline | EPSC, % of baseline at 30-40 min (direct-pathway synapses [8]): 95±9 % of baseline

CCN1CCCC1CNC(=O)c1cc(S(N)(=O)=O)ccc1OC (centres unmarked) [sulpiride]
EPSC after LTD induction, % of baseline at 30-40 min [9]: 96±12 % of baseline

Cc1c(C(=O)c2cccc3ccccc23)c2cccc3c2n1[C@H](CN1CCOCC1)CO3 [WIN55,212]
EPSC, % of baseline at 15-20 min after wash-in ([10]; control mice): 47±7 % of baseline | EPSC, % of baseline at 15-20 min after washing ([10]; dopamine-depleted animals (reserpine and 6-OHDA pooled)): 58±5 % of baseline | EPSC, % of baseline at 15-20 min after wash-in (direct-pathway synapses [11]): 56±8 % of baseline

CN1CCN(CC(=O)N2c3ccccc3C(=O)Nc3cccnc32)CC1 [pirenzepine]
Block of carbachol-induced inward membrane current (MSNs): block a carbachol-induced inward membrane current

NC(=O)c1cccc(-c2cccc(OC(=O)NC3CCCCC3)c2)c1 [URB597]
EPSC after LTD induction, % of baseline at 30-40 min [4]: 62±5 % of baseline | EPSC after LTD induction, % of baseline at 30-40 min [1]: 55±7 % of baseline | Effect of drug alone on EPSC amplitudes / synaptic transmission (medium spiny neurons): no effect | Descent latency, catalepsy bar test (reserpine-treated mice [6]; mouse, in vivo): no significant decrease in catalepsy | Descent latency, catalepsy bar test (6-OHDA-treated mice [2]; mouse, in vivo): no significant decrease in catalepsy | Distance traveled in 15 min, open field (reserpine-treated mice [7]; mouse, in vivo): no significant decrease in catalepsy or increase in locomotor activity | Distance traveled in 15 min, open field (6-OHDA-treated mice [3]): no significant decrease in catalepsy or increase in locomotor activity
